For 49 compounds, EC50, IC50 and outcome results are on record in PubChem BioAssay AID179 (DTP/NCI, 2004).

pEC50, pIC50: −log10 of the molar value. Activity calls are given as the source filed them.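 The calls were made as follows: active = compounds giving half or more protection of infected cells from virus-caused growth loss, again on retest; inactive = the rest.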

The experiment has as its system CEM cells HIV-1 protection, formazan growth assay. The experiment in a line: NCI AIDS Antiviral Assay. The conditions noted are these: for pIC50: measured here: growth of uninfected CEM cells. The method in brief: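 Five concentrations of each compound were applied to infected and uninfected human CEM cells. Protection from HIV-1 was judged from growth measured with a soluble formazan assay.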

The term pEC50 denotes −log10 of the EC50, conventionally taken in molar units. The pIC50 is the IC50 on a negative log10 scale, so that one unit is a factor of ten. Read a low pIC50 as a high IC50. For `O=C1[C@H]2ON(c3ccccc3)C(c3cccc([N+](=O)[O-])c3)[C@H]2C(=O)N1c1ccc(Cc2ccc(N3C(=O)[C@@H]4ON(c5ccccc5)C(c5cccc([N+](=O)[O-])c5)[C@@H]4C3=O)cc2)cc1` (stereo partly drawn), the pEC50 was less than 5.21 and the pIC50 was less than 5.21.
On to `Cc1cccc2c1Sc1ccccc1C2NC(=O)CN(C)C` (stereo not drawn), for which the pEC50 was less than 3.38 and the negative logarithm of the IC50 (pIC50) is 3.99.
As for `O=C1Nc2cnc(Cl)nc2Nc2ccc(Cl)cc21`, the pEC50 was 3.91 and the negative logarithm of the IC50 (pIC50) is less than 3.70.
For `CC(C)=Cc1cc(C(=O)NCCNC(=O)c2cc(C=C(C)C)nc(NC#N)n2)nc(NC#N)n1`, in that order: less than 5.23 and less than 5.23.
With `CC1(C)OCC[C@@H]1[Si](C)(C)C`, the result was inactive.
Regarding `CCOC(=O)C1=CNC(C(=O)OCC)C1c1cccn1-c1ccccc1` (stereo not drawn), the pEC50 is less than 3.70 and the pIC50 was 4.44.
For `COc1cc(NCCCNCC(C)(C)C)c2ncccc2c1`, in that order: less than 3.70 and 4.09.
For `CC(=O)Oc1ccc(-c2oc3c([C@H]4C=C(C)CC(c5ccc(OC(C)=O)cc5OC(C)=O)[C@@H]4C(=O)c4ccc(OC(C)=O)c(CC=C(C)C)c4OC(C)=O)c(OC(C)=O)cc(OC(C)=O)c3c(=O)c2CC=C(C)C)c(OC(C)=O)c1` (stereo partly drawn), the pEC50 was less than 5.09 and the pIC50 was less than 5.09.
In the case of `CC1C2CC(CC(=O)N2)C1(C)C` (stereo not drawn), the pEC50 was less than 2.83 and the pIC50 is 3.12.
For `Cc1ccc(S(=O)(=O)NNC(=O)c2sc(-c3nc(C)c(C(=O)NNS(=O)(=O)c4ccc(C)cc4)s3)nc2C)cc1`, the pEC50 is less than 4.09 and the negative logarithm of the IC50 (pIC50) was less than 4.09.
With `CCCCCC(C(O)C#N)C(O)(C(F)(F)F)C(F)(F)F` (stereo not drawn), the pEC50 is less than 3.70 and the negative logarithm of the IC50 (pIC50) is 4.28.
With `O=S(=O)(O)Oc1cc2c(c(OS(=O)(=O)O)c1)C[C@H](OS(=O)(=O)O)[C@@H](c1ccc(OS(=O)(=O)O)c(OS(=O)(=O)O)c1)O2`, the pEC50 is 4.04 and the pIC50 was 3.76.
For `CCCCCCCCCC=C(c1cc(Br)c(OC)c(C(=O)OC)c1)c1cc(Br)c(OC)c(C(=O)OC)c1`, in that order: less than 4.53 and less than 4.53.
Turning to `NS(=O)(=O)c1ccc(NC(=O)/C=C/C(=O)O)cc1`, the pEC50 was less than 3.70 and the pIC50 is less than 3.70.
In the case of `O=[N+]([O-])c1ccc(OCc2nc3ccccc3[nH]2)cc1`, the pEC50 was less than 3.70 and the pIC50 was 4.06.
For the compound `COC(=O)C(Cc1cccc(OC)c1)NC(=O)OC(C)(C)C` (stereo not drawn), the result was inactive.
With `O=CC[C@@H]1c2ccccc2C=C[C@]12C=CC(=O)CC2`, the pEC50 was less than 4.13 and the pIC50 is 4.27.
For `CCN1C[C@]2(COC)CCC(=O)C34[C@@H]5C[C@@H]6C(O)[C@@H]5[C@](O)(C[C@@H]6OC)[C@@H](C(OC)[C@@H]32)[C@H]14` (stereo partly drawn), the outcome was inactive.
Regarding `COc1ccc(N2C(=O)C3c4[nH]c5ccccc5c4C4CCC(C(C)(C)C)CC4C3C2=O)cc1OC` (stereo not drawn), the pEC50 is less than 5.67 and the pIC50 is less than 5.67.
As to `COc1cc2c(c3oc(=O)ccc13)[C@@H](OC(=O)C13CCC(C)(C(=O)O1)C3(C)C)[C@@H](OC(=O)C13CCC(C)(C(=O)O1)C3(C)C)C(C)(C)O2` (stereo partly drawn), the pEC50 was 6.49 and the negative logarithm of the IC50 (pIC50) was less than 3.70.
For `CC1CCCC(C(=O)CC2CC(=O)NC(=O)C2)C1=O` (stereo not drawn), in that order: less than 3.70 and less than 3.70.
For `C=C(c1nc2ccc(Cl)cc2[nH]c1=O)C(O)c1ccc(C(O)C(=O)c2nc3ccc(Cl)cc3[nH]c2=O)cc1` (stereo not drawn), in that order: less than 3.79 and 4.92.
For the compound `O=c1[nH]c(=O)n2n1CC(Br)C(Br)C2` (stereo not drawn), the outcome was inactive.
For the compound `O=c1[nH]c(=O)n(C2CC(F)C(CO)O2)cc1CO` (stereo not drawn), the pEC50 is less than 3.32 and the negative logarithm of the IC50 (pIC50) is 3.73.
For `CS(=O)(=O)c1noc(N)n1`, in that order: less than 2.82 and 2.90.
For `CCOC(=O)C(NC(=O)c1cccc(Cl)c1)(N1CCN(c2cc3c(cc2F)c(=O)c(C(=O)O)cn3C2CC2)CC1)C(F)(F)F` (stereo not drawn), in that order: less than 4.70 and 4.99.
For `Cc1c(CCN=P(c2ccccc2)(c2ccccc2)c2ccccc2)c(=O)n2c([nH]c3ccccc32)c1C#N`, in that order: less than 3.70 and 4.50.
Turning to `CCSC(=O)C1(C)Cc2ccccc2O1` (stereo not drawn), the outcome was inactive.
In the case of `CC(=O)NNc1nc(C)c(C(/C=C/c2ccccc2O)=N/NC(=O)c2ccncc2)s1`, the pEC50 was less than 4.65 and the negative logarithm of the IC50 (pIC50) is less than 4.65.
`CC(=O)OCC12CCC(C)=CC1OC1C3(O)N=C(C)OC3C2(C)C12CO2` (stereo not drawn): the pEC50 is less than 3.70 and the negative logarithm of the IC50 (pIC50) was 7.18.
For `CCOC(=O)C1(Sc2ccccc2)CCC2c3[nH]c4ccccc4c3CCN2C1=O` (stereo not drawn), in that order: less than 4.91 and less than 4.91.
In the case of `O=C(CC(=O)C(=O)Nc1ccccc1)CC(c1ccccc1)c1c(O)c2ccccc2oc1=O` (stereo not drawn), the pEC50 is less than 3.26 and the negative-log IC50 (pIC50) was 3.58.
Consider `CC(C)CC(NC(=O)C(Cc1ccccc1)NC(=O)[C@H]1CC[C@H](NC(=O)C(N)Cc2ccc(O)cc2)C1)C(N)=O` (stereo partly drawn), for which the result was inactive.
Turning to `O=Nc1c(O)cc(O)c2ccccc12`, the outcome was inactive.
Still for that read-out and setting: in the case of `CN(C)C(=S)/N=c1\ssc(=Nc2ccccc2)n1C` it was “inactive”.
For `O=C(O)c1ccccc1/C=N/NC1=NCCCCN1`, the pEC50 was less than 3.70 and the pIC50 is 3.85.
For `COc1ccc2c(c1)CCC1C3(CCCC21C=O)OCCO3` (stereo not drawn), in that order: less than 3.78 and less than 3.78.
For `NC1=NCc2c(sc3c2CCCC3)N1`, in that order: less than 3.70 and 4.73.
For `CSc1c(C(=O)Nc2ccccc2)c(N)nn1-c1ccccc1`, in that order: less than 3.70 and 4.15.
Take `Cc1nnc(Nc2ccccc2)o1`: the outcome was inactive.
Consider `CC(C)(Oc1ccc(C2C[C@H]2Cl)cc1)C(=O)O` (stereo partly drawn), for which the pEC50 is less than 3.70 and the negative logarithm of the IC50 (pIC50) is less than 3.70.
Turning to `O=c1[nH]c(CO)nc(O)c1Cl`, the pEC50 is less than 3.70 and the negative-log IC50 (pIC50) was less than 3.70.
In the case of `CN1CCN(c2cc3c(cc2F)c(=O)c(C(=O)O)cn3C2CC2)CC1CC#N` (stereo not drawn), the pEC50 is less than 3.70 and the negative-log IC50 (pIC50) is 3.83.
As to `C=CCSC[C@H](NC(=O)COc1ccccc1)C(=O)NC(C(=O)OCc1ccc([N+](=O)[O-])cc1)=C(C)C`, the pEC50 is less than 4.59 and the pIC50 was less than 4.59.
Consider `[N-]=[N+]=NCC(O)Cn1cnc2c(NC(=O)c3ccccc3)ncnc21` (stereo not drawn), for which the pEC50 was less than 3.13 and the pIC50 was 3.37.
For `O=C(Nc1ccc(S(=O)(=O)c2ccc(NC(=O)c3cc(S(=O)(=O)O)ccc3O)cc2)cc1)c1cc(S(=O)(=O)O)ccc1O` (tested in a mixture with another compound), in that order: 3.79 and less than 3.70.
For `O=[N+]([O-])c1ccc2[nH]nc(OCc3ccccn3)c2c1`, in that order: 3.94 and less than 3.70.
Regarding `CC(=O)Oc1c2c(cc3c1C(=O)NC1C3=CC(OC(C)=O)[C@@H](OC(C)=O)[C@H]1OC(C)=O)OCO2` (stereo partly drawn), the result was inactive.
As to `CC(C)(C)C(=O)Cc1cc2c(cc1C(=O)O)S(=O)(=O)NC(C(C)(C)C)=C2`, the pEC50 is less than 3.32 and the pIC50 was less than 3.32.
